Assay results as given in patent US8247397B2, “Combinations of phosphoinositide 3-kinase inhibitor compounds and chemotherapeutic agents, and methods of use” (Genentech, Inc., priority 2007, dated 2012).
Blank lines part the entries; values can stand above or below the compound they belong to.

Tests used:
Oral bioavailability = conditions: in vivo
[1] = system: MAXF 1162 primary breast tumor explant xenografts; experiment: In vivo tumor xenograft; set-up: species or system mouse; conditions: after 49 days, docetaxel 15 mg/kg iv day 0, 11, 22, 44
Experimental: (§1) The efficacy of the combinations of the invention may be measured in vivo by implanting allografts or xenografts of cancer cells in rodents and treating the tumor-bearing animals with the combinations. Variable results are to be expected depending on the cell line, the presence or absence of certain mutations in the tumor cells, the sequence of administration of Formula I or II compound and chemotherapeutic agent, dosing regimen, and other factors. Subject mice were treated with drug(s) or control (Vehicle) and monitored over several weeks or more to measure the time to tumor doubling, log cell kill, and tumor inhibition (Example 17).
(§2) Animals suitable for transgenic experiments can be obtained from standard commercial sources. Groups of female CD-1 nude mice (Charles River Laboratory) were implanted subcutaneously in the hind flank with 20 million MDA-MB-361.1 (PI3K mutant) breast cancer cells with matrigel and 0.36 mg of estrogen implants per mouse. Groups of female NMRI nu/nu mice (Janvier) were implanted with 150 mm3 fragments of MAXF 401 (Her2+/ER+/PR^+) or MAXF 1162 (Her2+/ER+/PR^+) primary breast tumors (biopsied directly from two individual breast cancer patients) with matrigel and 0.36 mg of estrogen pellets per mouse. Groups of female HRLN nu/nu (Harlan Labs) were implanted with 10 million MCF-7 (PI3K mutant) breast cancer cells with matrigel and 0.36 mg of estrogen pellets per mouse. Groups of female athymic nu/nu mice (Charles River Laboratory) were implanted with 15 million NCI-H2122 (K-Ras mutant) non-small cell lung cancer cells and matrigel per mouse. Mouse xenografts were dosed at day 1 with drug, drug combination, or vehicle according to the schedule specified for each tumor model. Docetaxel was administered intravenously, B20-1.4 was administered intraperitonealy and Formula Ia and IIa were delivered per os by oral gavage. Tumor sizes were recorded twice weekly over the course of the study. Mouse body weights were also recorded twice weekly, and the mice were observed regularly. Tumor volume was measured in two dimensions (length and width) using Ultra Cal-IV calipers (Model 54-10-111; Fred V. Fowler Co., Inc.; Newton, Mass.) and analyzed using Excel v.11.2 (Microsoft Corporation; Redmond, Wash.). Tumor inhibition graphs were plotted using KaleidaGraph, Version 3.6 (Synergy Software; Reading, Pa.). The tumor volume was calculated with formula: Tumor size (mm^3)=(longer measurement×shorter measurement^2)×0.5
(§3) The percent tumor growth inhibition (% INH) at the end of study (EOS) was calculated using formula: % INH=100×(EOS mean volume of tumors in animals given vehicle−EOS mean volume of tumors in animals given the drug)/EOS mean volume of tumors in animals given vehicle.
(§4) Tumor incidence (TI) was determined based on the number of measurable tumors remaining in each group at the end of the study. A partial response (PR) was defined as a>50% but <100% reduction in tumor volume, compared with the starting tumor volume, observed on any day of the study. A complete response (CR) was defined as a 100% reduction in tumor volume, compared with the initial tumor volume, observed on any day of the study. Data were analyzed and p-values were determined using the Dunnett's test with JMP statistical software, version 5.1.2 (SAS Institute; Cary, N.C.). Individual tumor volumes at end of study and mean tumor volume±SEM values were calculated using JMP statistical software, version 5.1.2. Body weight data were graphed based on the mean percentage of change from initial body weights±SEM.

[2] = system: MAXF 401 primary breast tumor explant xenografts; experiment: In vivo tumor xenograft; set-up: species or system mouse
Experimental: as §1, §2, §3, §4

[3] = system: MCF-7 (PI3K mutant) breast tumor cell xenografts; experiment: In vivo tumor xenograft; set-up: species or system mouse; conditions: after 21 days; for tumor inhibition: mB20-4.1 5 mg/kg ip twice a week 3 weeks
Experimental: as §1, §2, §3, §4

[4] = system: MDA-MB-361.1 breast tumor cell xenografts; experiment: In vivo tumor xenograft; set-up: species or system mouse; conditions: for tumor inhibition: docetaxel 5 mg/kg iv day 1, 5, 9
Experimental: as §1, §2, §3, §4

[5] = system: NCI-H2122 non-small cell lung cancer (NSCLC) tumor xenografts; experiment: In vivo tumor xenograft; set-up: species or system mouse; conditions: erlotinib 75 mg/kg
Experimental: as §1, §2, §3, §4

PKA = conditions: concentrations as high as 50 μM; cited from earlier work
PKC = conditions: concentrations as high as 50 μM; cited from earlier work
SGK = molecular target: T1, SGK (Homo sapiens, UniProt O00141); conditions: concentrations as high as 50 μM; cited from earlier work
T1 sequence (O00141 1-431): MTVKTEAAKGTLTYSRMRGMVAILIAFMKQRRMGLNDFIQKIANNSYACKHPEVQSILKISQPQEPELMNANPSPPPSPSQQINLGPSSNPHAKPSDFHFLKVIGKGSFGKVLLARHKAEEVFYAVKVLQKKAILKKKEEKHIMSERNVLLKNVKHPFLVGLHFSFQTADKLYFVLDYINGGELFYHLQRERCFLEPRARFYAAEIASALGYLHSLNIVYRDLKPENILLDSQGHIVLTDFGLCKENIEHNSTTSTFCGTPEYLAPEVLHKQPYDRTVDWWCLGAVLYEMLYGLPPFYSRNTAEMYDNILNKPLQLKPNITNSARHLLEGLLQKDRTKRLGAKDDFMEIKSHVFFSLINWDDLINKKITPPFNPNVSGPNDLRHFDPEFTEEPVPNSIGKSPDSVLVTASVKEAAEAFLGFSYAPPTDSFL

pERK = conditions: cited from earlier work
[6] = system: pAkt (Ser473) in MDA-MB-361 cells; experiment: Phospho AKT induction assay; type: cell-based; conditions: synergistic cell line MDA-MB-361, EC80 dosing, 1 hr to 24 hr
Experimental: Phospho Akt (pAkt) levels can be measured by the method described in Example 18. Low CI correlates with the effect of the chemotherapeutic to induce an increase in pAkt. Levels of pAkt (Ser473) were determined using bead kits from Biosource (Carlsbad, Calif.) and the Luminex Bio-Plex system (Bio-Rad, Hercules, Calif.).
In a 6-well tissue culture plate cells were seeded at 5×10^5 cells per well overnight. Cells were treated with an EC80 of the chemotherapeutic agent. Following treatment, cells were washed once with cold PBS and lysed in 1× Cell Extraction Buffer from Biosource (Carlsbad, Calif.) supplemented with protease inhibitors (Roche, Mannheim, Germany), 1 mM PMSF, and Phosphatase Inhibitor Cocktails 1 and 2 from Sigma (St. Louis, Mo.). Determination of protein concentration was performed using the Pierce BCA Protein Assay Kit (Rockford, Ill.). Levels of pAkt (Ser^473) and total Akt were assessed using bead kits from Biosource (Carlsbad, Calif.) and the Luminex Bio-Plex system (Bio-Rad, Hercules, Calif.).

[7] = system: small cell lung cancer (SCLC) tumors; experiment: Genetically engineered mouse model (GEMM) for SCLC; type: in vivo
From the text: (§5) […]. Cancer Res. 12(18):5312-5328; US 2007/0292948, both of which are incorporated by reference in their entirety). The surprising and unexpected results from these experiments may predict the clinical response of certain patient populations having select tumor types and mutations to such combination therapy with Formula I and II compounds and chemotherapeutic agents.

[8] = system: pancreatic adenocarcinoma (PDAC) tumors; experiment: Genetically engineered mouse model (GEMM) for pancreatic cancer; type: in vivo
From the text: as §5
A GEMM for pancreatic cancer (Aguirre et al. (2003) Genes & Development 17:3112-3126) encompasses the mutations found in a majority of patients with this disease.

[9] = system: K-ras-driven NSCLC tumors; experiment: K-ras-driven NSCLC GEMM; type: in vivo, mouse
From the text: as §5

[10] = FIG. 27, Formula IIa 100 mg/kg oral
[11] = FIG. 25, day 28, Formula IIa 100 mg/kg oral day 0-3, 11-17, 21-28, docetaxel 15 mg/kg iv day 0 and 11
[12] = FIG. 25, end of the study (day 50)
[13] = FIG. 23, after 21 days, Formula IIa 37.5 mg/kg oral daily 21 days
[14] = FIG. 23, after 21 days, groups of 10 animals
[15] = FIG. 26, Formula Ia 100 mg/kg oral
[16] = FIG. 24, day 28, NMRI nu/nu mice, Formula Ia 100 mg/kg oral day 0-4, 11-17, 21-28, docetaxel 15 mg/kg iv day 0 and 11
[17] = FIG. 24, end of the study (day 50)
[18] = FIG. 22, after 21 days, CD-1 nude mice, Formula Ia 150 mg/kg oral daily 21 days
[19] = FIG. 22, after 41 days, Formula Ia 150 mg/kg oral daily 21 days
[20] = FIG. 22, after 41 days, groups of 11 (Formula Ia), 10 (docetaxel), 9 (combination) animals

oral bioavailability (Oral bioavailability): orally bioavailable
Compound: Cc1c(CN2CCN(C(=O)[C@H](C)O)CC2)sc2c(N3CCOCC3)nc(-c3cnc(N)nc3)nc12 [Formula Ib, (S)-1-(4-((2-(2-aminopyrimidin-5-yl)-7-methyl-4-morpholinothieno[3,2-d]pyrimidin-6-yl)methyl)piperazin-1-yl)-2-hydroxypropan-1-one]

oral bioavailability (Oral bioavailability): orally bioavailable
Compound: CS(=O)(=O)N1CCN(Cc2cc3c(N4CCOCC4)nc(-c4cccc5[nH]ncc45)nc3s2)CC1 [Formula IIa, 4-(2-(1H-indazol-4-yl)-6-((4-(methylsulfonyl)piperazin-1-yl)methyl)thieno[2,3-d]pyrimidin-4-yl)morpholine]
tumor inhibition [1, 10]: 32% | tumor inhibition [2, 11]: 82% | tumor inhibition [2, 12]: 51% | partial regressions ([3]; FIG. 31): 0 | tumor inhibition ([3]; FIG. 31, Formula IIa 100 mg/kg oral daily 21 days): 5% | tumor inhibition [4, 13]: 30% | partial regressions [4, 14]: 2 | tumor inhibition ([5]; FIG. 29, end of study, Formula IIa 50 mg/kg, oral daily 14 days): 27%

Compound: (2R,3S)-N-carboxy-3-phenylisoserine, N-tert-butyl ester, 13-ester with 5,20-epoxy-1,2,4,7,10,13-hexahydroxytax-11-en-9-one 4-acetate 2-benzoate, trihydrate [docetaxel, reference compound]
tumor inhibition [1, 15]: 36% | tumor inhibition [1, 10]: 36% | tumor inhibition [2, 16]: 95% | tumor inhibition [2, 17]: 68% | tumor inhibition [2, 11]: 95% | tumor inhibition [2, 12]: 68% | tumor inhibition [4, 18]: 78% | tumor inhibition [4, 19]: 26% | partial regressions [4, 20]: 2 | tumor inhibition [4, 13]: 35% | partial regressions [4, 14]: 3

Compound: O=c1[nH]c2ccccc2n1C1CCN(Cc2ccc(-c3nc4cc5[nH]cnc5cc4nc3-c3ccccc3)cc2)CC1 [Akti-1/2, 1,3-dihydro-1-(1-((4-(6-phenyl-1H-imidazo[4,5-g]quinoxalin-7-yl)phenyl)methyl)-4-piperidinyl)-2H-benzimidazol-2-one]
inhibitory effect (PKA): does not exhibit any inhibitory effect | inhibitory effect (PKC): does not exhibit any inhibitory effect | inhibitory effect (SGK): does not exhibit any inhibitory effect

Compound: OCCn1cc(-c2ccc3c(c2)CC/C3=N\O)c(-c2ccncc2)n1 [HPPD, 5-(1-(2-hydroxyethyl)-3-(pyridin-4-yl)-1H-pyrazol-4-yl)-2,3-dihydro-1H-inden-1-one oxime]
IC50 (pERK): 87 nM

Compound: Nc1ccn([C@@H]2O[C@H](CO)[C@@H](O)C2(F)F)c(=O)n1 [Gemcitabine, 4-amino-1-[3,3-difluoro-4-hydroxy-5-(hydroxymethyl)tetrahydrofuran-2-yl]-1H-pyrimidin-2-one]
pAkt levels [6]: increased pAkt levels

Compound: CS(=O)(=O)N1CCN(Cc2cc3nc(-c4cccc5[nH]ncc45)nc(N4CCOCC4)c3s2)CC1 [Formula Ia, 4-(2-(1H-indazol-4-yl)-6-((4-(methylsulfonyl)piperazin-1-yl)methyl)thieno[3,2-d]pyrimidin-4-yl)morpholine]
tumor inhibition [1, 15]: 54% | tumor inhibition [2, 16]: 49% | tumor inhibition [2, 17]: 10% | partial regressions ([3]; FIG. 30): 0 | tumor inhibition ([3]; FIG. 30, HRLN nu/nu mice, Formula Ia 150 mg/kg oral daily 21 days): 36% | tumor inhibition [4, 18]: 75% | tumor inhibition [4, 19]: 66% | partial regressions [4, 20]: 3 | tumor inhibition ([5]; FIG. 28, after 20 days, Formula Ia 50 mg/kg, oral daily 16 days): 17% | survival [7]: did have an effect (significant hazard ratio) on survival | tumor growth as assessed by microCT imaging [7]: did not show effects on tumor growth | survival [8]: modest (not statistically significant) effect on survival | tumor growth via ultrasound [8]: initial decrease in tumor growth | survival [9]: no effect on survival | tumor growth as measured by microCT imaging [9]: minimally affected tumor growth | oral bioavailability (Oral bioavailability): orally bioavailable
